{"source": "paper PMC7073924", "about": "“2-Aminomethylene-5-sulfonylthiazole Inhibitors of Lysyl Oxidase (LOX) and LOXL2 Show Significant Efficacy in Delaying Tumor Growth” (Journal of Medicinal Chemistry, 2019)", "key": {"LOXL3": {"molecular_target": "T1, LOXL3 (Homo sapiens, UniProt P58215)", "T1 sequence (P58215 26-753)": "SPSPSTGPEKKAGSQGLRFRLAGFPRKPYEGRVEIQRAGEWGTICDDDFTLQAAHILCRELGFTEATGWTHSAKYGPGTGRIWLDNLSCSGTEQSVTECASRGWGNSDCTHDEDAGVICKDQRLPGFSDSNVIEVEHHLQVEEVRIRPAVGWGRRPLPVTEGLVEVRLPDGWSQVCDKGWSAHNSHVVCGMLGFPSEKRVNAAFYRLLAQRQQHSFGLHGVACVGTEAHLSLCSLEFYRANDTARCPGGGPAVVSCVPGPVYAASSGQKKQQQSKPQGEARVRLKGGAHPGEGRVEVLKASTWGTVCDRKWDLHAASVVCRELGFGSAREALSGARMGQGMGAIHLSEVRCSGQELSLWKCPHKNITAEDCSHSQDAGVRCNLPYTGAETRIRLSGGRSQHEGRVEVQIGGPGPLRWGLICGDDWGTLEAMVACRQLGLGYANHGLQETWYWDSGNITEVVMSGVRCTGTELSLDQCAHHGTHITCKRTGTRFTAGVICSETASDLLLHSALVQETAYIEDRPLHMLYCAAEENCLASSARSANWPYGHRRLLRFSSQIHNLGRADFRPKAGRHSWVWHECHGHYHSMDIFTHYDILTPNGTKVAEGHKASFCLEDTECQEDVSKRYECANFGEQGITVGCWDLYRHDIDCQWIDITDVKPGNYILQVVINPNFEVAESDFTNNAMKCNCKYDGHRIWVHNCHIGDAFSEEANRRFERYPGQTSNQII", "test": "LOXL3 enzyme assay (Promega ROS-Glo, cadaverine substrate)", "type": "biochemical", "protocol": "(§1) LOXL2 and LOXL3 were purchased from R&D Systems. LOX, LOXL2, and LOXL3 catalytic activity were determined using the Promega ROS-Glo assay kit with cadaverine dihydrochloride as substrate, BAPN as the reference inhibitor control, a preincubation time of 20 min, 1 h, or 3 h, with nine dilutions from a top concentration of 10 μM or 100 μM."}, "LOXL2": {"molecular_target": "T2, LOXL2 (Homo sapiens, UniProt Q9Y4K0)", "T2 sequence (Q9Y4K0 26-774)": "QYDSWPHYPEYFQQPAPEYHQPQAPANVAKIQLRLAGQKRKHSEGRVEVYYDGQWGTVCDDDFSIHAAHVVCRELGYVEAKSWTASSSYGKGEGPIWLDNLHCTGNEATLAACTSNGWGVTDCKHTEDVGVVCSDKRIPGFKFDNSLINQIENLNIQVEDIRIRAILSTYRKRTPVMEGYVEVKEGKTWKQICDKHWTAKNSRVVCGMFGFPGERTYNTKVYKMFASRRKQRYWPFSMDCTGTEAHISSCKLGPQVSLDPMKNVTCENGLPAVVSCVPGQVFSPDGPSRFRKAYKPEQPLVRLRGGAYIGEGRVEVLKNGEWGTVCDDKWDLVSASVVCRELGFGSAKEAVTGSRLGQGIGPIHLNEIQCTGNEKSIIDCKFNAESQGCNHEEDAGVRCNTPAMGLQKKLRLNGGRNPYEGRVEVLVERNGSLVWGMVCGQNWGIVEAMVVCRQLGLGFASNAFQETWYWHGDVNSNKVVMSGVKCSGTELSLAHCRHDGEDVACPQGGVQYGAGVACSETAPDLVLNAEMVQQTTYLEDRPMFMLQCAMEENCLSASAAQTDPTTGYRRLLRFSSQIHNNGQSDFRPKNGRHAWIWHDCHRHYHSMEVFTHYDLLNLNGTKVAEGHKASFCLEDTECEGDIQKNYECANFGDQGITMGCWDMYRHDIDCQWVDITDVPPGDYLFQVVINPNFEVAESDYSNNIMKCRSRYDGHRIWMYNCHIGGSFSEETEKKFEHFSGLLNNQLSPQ", "test": "LOXL2 enzyme assay (Promega ROS-Glo, cadaverine substrate)", "type": "biochemical", "parameters": "Activity (LOXL2 activity used in the RVM model data matrix): unit not given here"}, "SSAO": {"molecular_target": "T3, SSAO (Homo sapiens, UniProt Q16853)", "T3 construct": "purchased Sigma", "T3 sequence (Q16853 1-763)": "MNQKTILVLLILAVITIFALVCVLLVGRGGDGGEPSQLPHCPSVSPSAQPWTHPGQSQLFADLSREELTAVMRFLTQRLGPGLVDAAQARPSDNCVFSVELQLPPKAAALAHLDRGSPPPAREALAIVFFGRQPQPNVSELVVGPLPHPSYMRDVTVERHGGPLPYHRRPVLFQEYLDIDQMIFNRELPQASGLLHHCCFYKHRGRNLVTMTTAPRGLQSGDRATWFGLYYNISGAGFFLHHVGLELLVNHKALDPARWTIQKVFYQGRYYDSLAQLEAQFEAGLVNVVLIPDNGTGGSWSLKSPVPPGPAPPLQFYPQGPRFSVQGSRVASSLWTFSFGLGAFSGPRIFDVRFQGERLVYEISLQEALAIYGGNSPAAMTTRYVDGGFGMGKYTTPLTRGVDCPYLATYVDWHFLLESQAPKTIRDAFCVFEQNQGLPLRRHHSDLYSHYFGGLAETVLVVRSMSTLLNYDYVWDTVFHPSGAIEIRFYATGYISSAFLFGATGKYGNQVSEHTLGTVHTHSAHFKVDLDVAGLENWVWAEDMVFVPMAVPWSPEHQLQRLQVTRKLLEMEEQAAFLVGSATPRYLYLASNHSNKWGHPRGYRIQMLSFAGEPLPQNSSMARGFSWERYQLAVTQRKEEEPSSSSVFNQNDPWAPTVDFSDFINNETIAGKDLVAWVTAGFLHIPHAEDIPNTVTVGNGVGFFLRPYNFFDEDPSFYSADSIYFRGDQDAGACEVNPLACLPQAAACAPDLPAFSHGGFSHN", "type": "biochemical", "protocol": "All amine oxidase assays were performed with concentrations as above. MAO-A and MAO-B enzymes were purchased from Sigma. The catalytic activity of MAO-A and MAO-B was determined using the Promega MAO-Glo assay kit (substrate included), with clorgyline and deprenyl as reference inhibitor controls, respectively. DAO was purchased from Sigma, and the catalytic activity was determined using the Promega ROS-Glo assay kit, with aminoguanidine as the reference inhibitor control. SSAO was purchased from Sigma. SSAO catalytic activity was determined using the Promega MAO-Glo assay kit, with mofegiline as the reference inhibitor control."}, "LOX": {"molecular_target": "T4, LOX (Sus scrofa, UniProt P45845)", "T4 sequence (P45845 1-249)": "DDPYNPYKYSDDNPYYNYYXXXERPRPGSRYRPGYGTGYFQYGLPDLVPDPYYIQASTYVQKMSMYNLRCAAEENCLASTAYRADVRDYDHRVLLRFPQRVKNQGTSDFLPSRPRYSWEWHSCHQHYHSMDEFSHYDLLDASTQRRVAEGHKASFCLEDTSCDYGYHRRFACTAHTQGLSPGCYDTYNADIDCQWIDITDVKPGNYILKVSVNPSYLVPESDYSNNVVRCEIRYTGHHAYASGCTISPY", "test": "LOX enzyme assay (Promega ROS-Glo, cadaverine substrate)", "type": "biochemical, pig", "settings": "Table 6; 1 h preincubation", "protocol": "as §1"}}, "note": "Where “and” joins values, the source holds several entries; their conditions need not be identical. Equal values may be shown once. Where a name gives a salt, the structure may show the parent alone. Read-outs that look alike come from different tables or passages of the source.", "data": [{"compound": "CS(=O)(=O)c1cc(-c2ccccc2)cc(S(=O)(=O)c2ccc(CN)s2)c1", "note": "[Compound 3a]", "values": [{"measurement": "IC50", "setting": "LOXL3", "result": "13500 nM and 18500 nM"}]}, {"compound": "CNCc1ncc(S(=O)(=O)c2cc(-c3ccccc3)cc(S(C)(=O)=O)c2)s1", "note": "[Compound 7b, N-Methyl-1-(5-((5-(methylsulfonyl)-[1,1′-biphenyl]-3-yl)sulfonyl)thiazol-2-yl)methanamine Hydrochloride]", "values": [{"measurement": "IC50", "setting": "LOXL2; read-out: LOXL2, IC50", "result": 68300, "unit": "nM"}]}, {"compound": "NCc1ncc(S(=O)(=O)c2ccc3ccccc3c2)s1", "note": "[Compound 6]", "values": [{"measurement": "IC50", "setting": "SSAO", "result": "47200 nM and 47100 nM"}]}, {"compound": "CS(=O)(=O)c1cccc(-c2cnc(CN)s2)c1", "note": "[Compound 14, (5-(3-(Methylsulfonyl)phenyl)thiazol-2-yl)methanamine Hydrochloride]", "values": [{"measurement": "IC50", "setting": "LOXL2; read-out: LOXL2 IC50", "result": "414 nM and 394 nM"}]}, {"compound": "CS(=O)(=O)c1cc(-c2ccccc2)cc(-c2cnc(CN)s2)c1", "note": "[Compound 17, (5-(5-(Methylsulfonyl)-[1,1′-biphenyl]-3-yl)thiazol-2-yl)methanamine Hydrochloride]", "values": [{"measurement": "IC50", "setting": "LOX", "result": "52000 nM and 46500 nM"}, {"measurement": "Activity (LOXL2 activity used in the RVM model data matrix)", "setting": "LOXL2", "result": 6.16}, {"measurement": "IC50", "setting": "LOXL2; read-out: LOXL2 IC50", "result": "652 nM and 716 nM"}]}, {"compound": "NCc1ncc(-c2cccc(-c3ccccc3)c2)s1", "note": "[Compound 16, (5-([1,1′-Biphenyl]-3-yl)thiazol-2-yl)methanamine Hydrochloride]", "values": [{"measurement": "IC50", "setting": "LOXL2; read-out: LOXL2 IC50", "result": "1750 nM and 1600 nM"}]}, {"compound": "NCc1ccc(S(=O)(=O)c2ccc3ccccc3c2)s1", "note": "[Compound 4]", "values": [{"measurement": "increase in LOXL2 potency on increasing preincubation from 20 min to 1 h", "setting": "LOXL2", "result": "≤ 5", "unit": "fold"}]}, {"compound": "CS(=O)(=O)c1cc(Sc2cnc(CN)s2)cc(-c2ccccc2)c1", "note": "[Compound 7d, (5-((5-(Methylsulfonyl)-[1,1′-biphenyl]-3-yl)thio)thiazol-2-yl)methanamine Hydrochloride]", "values": [{"measurement": "IC50", "setting": "LOX", "result": "1310 nM and 1130 nM"}, {"measurement": "IC50", "setting": "LOXL2; read-out: LOXL2 IC50", "result": 233, "unit": "nM"}]}, {"compound": "Cn1cc(-c2cc(Cl)cc(S(=O)(=O)c3cnc(CN)s3)c2)cn1", "note": "[Compound 21d, (5-((3-Chloro-5-(1-methyl-1H-pyrazol-4-yl)phenyl)sulfonyl)thiazol-2-yl)methanamine Hydrochloride]", "values": [{"measurement": "IC50", "setting": "LOXL2; Activity column of RVM_model_LOXL2.csv, Type = Data matrix, input activity for the RVM model of LOXL2, read-out: Activity (LOXL2 activity used in the RVM model data matrix) (converted)", "result": 309, "unit": "nM"}, {"measurement": "IC50", "setting": "LOXL2; read-out: LOXL2 IC50", "result": 280, "unit": "nM"}]}, {"compound": "CS(=O)(=O)c1cccc(S(=O)(=O)c2cnc(CN)s2)c1", "note": "[Compound 13, (5-((3-(Methylsulfonyl)phenyl)sulfonyl)thiazol-2-yl)methanamine Hydrochloride]", "values": [{"measurement": "IC50", "setting": "LOXL2; read-out: LOXL2 IC50", "result": "184 nM and 246 nM"}]}, {"compound": "CCCS(=O)(=O)c1cnc(CN)s1", "note": "[Compound 10, (5-(Propylsulfonyl)thiazol-2-yl)methanamine Hydrochloride]", "values": [{"measurement": "Activity (LOXL2 activity used in the RVM model data matrix)", "setting": "LOXL2", "result": 6.24}, {"measurement": "IC50", "setting": "LOXL2; Table 3, 1 h preincubation, read-out: LOXL2 IC50", "result": "554 nM and 590 nM"}]}, {"compound": "Cc1ccc(-c2cc(S(C)(=O)=O)cc(S(=O)(=O)c3cnc(CN)s3)c2)cc1", "note": "[Compound 18, (5-((4′-Methyl-5-(methylsulfonyl)-[1,1′-biphenyl]-3-yl)sulfonyl)thiazol-2-yl)methanamine Hydrochloride]", "values": [{"measurement": "IC50", "setting": "SSAO", "result": "2700 nM and 1300 nM"}]}, {"compound": "CS(=O)(=O)c1cc(-c2ccccc2)cc([S+]([O-])c2cnc(CN)s2)c1", "note": "(stereo not drawn) [Compound 7c, (5-((5-(Methylsulfonyl)-[1,1′-biphenyl]-3-yl)sulfinyl)thiazol-2-yl)methanamine Hydrochloride]", "values": [{"measurement": "IC50", "setting": "LOXL2; read-out: LOXL2 IC50", "result": "244 nM and 236 nM"}]}]}
